Measurements published in patent EP2062893A1, “Fused imidazoles for cancer treatment” (Bayer Schering Pharma AG, priority 2007, dated 2009).

Experiments:
Type in all cases: cell-based
OvCAR3 cells = assay: Cellular proliferation / Cytotoxicity assay (Alamar Blue / Resazurin cell viability); settings: Homo sapiens, OVCAR-3, 48h incubation, read-out: Anti-proliferative / Cytotoxic activity (OvCAR3 cells)
Procedure: Wells containing untreated control cells were filled with 200 µl DMEM (Dulbecco's Modified Eagle Medium) containing 0.5vol% v:v DMSO. The cells are then incubated with the substances for 48h at 37°C in a humidified atmosphere containing 5vol% CO2. To determine the viability of the cells, 20 µl of a Resazurin solution (90mg / I) are added. […] Viabilities are expressed as % values.

phosphorylated GSK3 = assay: Cellular pGSK3 assay (phospho-GSK3 Ser9 sandwich ELISA); settings: Homo sapiens; MCF7 cells, 48h incubation, IC50 of pGSK3 inhibition
Procedure: In order to study the cellular activity of the compounds according to the present invention, an ELISA-based assay has been established for the phosphorylated protein glycogen synthetase kinase 3 (GSK3). The assay is based on a solid phase sandwich ELISA that detects endogenous levels of phosphorylated GSK3 using a phospho-GSK3 (Ser9) specific antibody (BioSource International, Inc.; Catalog #KHO0461). After incubation with cell lysates, the coated antibody captures the phosphorylated GSK3 protein. Following extensive washing, GSK3 polyclonal antibody is added to detect the captured phospho-GSK3 protein. Secondary antibody (anti-rabbit IgG-HRP) is then used to recognize the bound detection antibody. After the second incubation and washing to remove all the excess anti-rabbit IgG-HRP, a substrate solution is added, which is acted upon by the bound enzyme to produce color. The intensity of this colored product is directly proportional to the concentration of GSK-3β [pS9] present in the original specimen. MCF7 cells (ATCC HTB-22) were seeded into 96 well fate bottom plates at a density of 10000 cells/well. After 24 h 1 µl each of the compound dilutions (test compounds were dissolved as 10 mM solutions in dimethylsulfoxide (DMSO) and subsequently diluted) were added into each well of the 96 well plates and incubated for 48h at 37°C in a humidified athmosphere containing 5% CO2. Cells were harvested and lysed in cell extraction buffer (10 mM Tris, pH 7.4, 100 mM NaCl, 1 mM EDTA, 1 mM EGTA, 1 mM NaF, 20 mM Na4P2O7, 2 mM Na3VO4, 1% Triton X-100, 10vol% glycerol, 0.1vol% SDS, 0.5vol% deoxycholate, 1 mM phenylmethylsulfonylfluorid (PMSF)). The lysate were centrifuged for 10 min. at 4°C and the supernatant were transferred to a new tube. 50 µl of sample diluent (standard diluent buffer, Biosource) were added and 100 µl of cell lysate transferred into the tube and vortexed. 100 µl of each diluted cell lysate were added to the appropriate ELISA well plate and incubated for 3h at room temperature. The plates were washed 4 times with 1x wash buffer (Biosource). 50 µl of detection antibody (GSK3 (Ser9) detection antibody; BioSource) were added to each well and incubated for 30 min. at room temperature. The washing procedure was repeated between each step. 100µl of HRP-linked secondary antibody (anti-mouse IgG HRP-linked antibody) were added to each well and incubated for 30 min. at room temperature. 100µl of TMB substrate (0.05vol% 3,3',5,5' tetramethylbenzidine, 0.1vol% hydrogen peroxide, complex polypeptides in a buffered solution; Biosource) were added to each well and incubated for 30 min. at room temperature. Finally 100 µl of Stop solution (0.05vol% α and β unsaturated carbonyl compound) were added to each well and the plate were shaked gently for a few seconds. The absorbance was measured at λ = 450 nm (Wallac Victor2; Perkin Elmer, USA) within 30 min. after adding the stop solution. The analysis of the data was performed using a statistical program (Excel; Microsoft, USA) and the IC50 of pGSK3 inhibition was determined.

[1] = test system: phosphorylated Akt protein; assay: Cellular PI3K / Akt pathway assay (phospho-Akt Ser473 sandwich ELISA); settings: Homo sapiens; MCF7 cells, ß-Heregulin (20ng/ml) stimulation, 48h incubation
Procedure: In order to study the cellular activity of the compounds according to the present invention, an Enzyme Linked Immunosorbent Assay (ELISA)-based assay has been used specific phospho-AKT. The assay is based on a Sandwich ELISA kit (PathScan™ Phospho-Akt1 (Ser473); Cell Signaling, USA; #7160). The ELISA Kit detects endogenous levels of phosphorylated Akt protein. A phospho-Akt (Ser473) antibody (Cell Signaling, USA; #9271) has been coated onto the microwells. After incubation with cell lysates, the coated antibody captures the phosphorylated Akt protein. Following extensive washing, Akt1 monoclonal antibody (Cell Signaling, USA; #2967) is added to detect the captured phospho-Akt1 protein. HRP-linked anti-mouse antibody (HRP: horseradish peroxidase; Cell Signaling, USA; #7076) is then used to recognize the bound detection antibody. HRP substrate (= 3,3',5,5'-tetramethylbenzidine (TMB); Cell Signaling, USA; #7160) is added to develop colour. The magnitude of optical density for this developed color is proportional to the quantity of phosphorylated Akt protein. MCF7 cells (ATCC HTB-22) are seeded into 96 well fate bottom plates at a density of 10000 cells/well. 24 hours after seeding, the cells are serum starved using low-serum medium (IMEM media including 0,1% charcoal treated FCS (FCS: fetal calf serum)). […] To stimulate Akt phosphorylation, ß-Heregulin (20ng/ml ß-HRG) is added in parallel to the compounds. Wells containing unstimulated control cells (no ß-Heregulin stimulation) are incubated with or without the diluted compound. Wells containing untreated control cells (no compound) are filled with medium containing 0.5% v:v DMSO and are or are not stimulated with ß-Heregulin. Cells are harvested and lysed with brief sonification in 1x cell lysis buffer (20mM Tris (pH7.5), 150 mM NaCl, 1 mM ethylene diaminetetraacetate (EDTA), 1 mM ethylene glycolbis(2-aminoethyl)-N,N,N',N'-tetraacetic acid (EGTA), 1vol% Triton X-100, 2.5mM sodium pyrophosphate, 1 mM β-glycerolphosphate, 1 mM Na3VO4, 1µg/ml leupeptin). The lysate is centrifuged for 10 min. at 4°C and the supernatant is transferred to a new tube. 100 µl of sample diluent (0.1vol% Tween-20, 0.1vol% sodium azide in phosphate buffered saline (PBS)) are added to a microcentrifuge tube and 100 µl of cell lysate are transferred into the tube and vortexed. 100 µl of each diluted cell lysate are added to the appropriate ELISA well, and incubated overnight at 4°C. The plates are washed 4 times with 1x wash buffer (1vol% tween-20, 0.33vol% thymol, in PBS). Next 100 µl of detection antibody (Akt1 (2H10) monoclonal detection antibody; Cell Signaling, USA; #2967) are added to each well and incubation continued for 1h at 37°C. The washing procedure is repeated between each step. 100µl of secondary antibody (anti-mouse IgG HRP-linked antibody; Cell Signaling, USA; #7076) are added to each well and incubated for 30 min. at 37°C. Than, 100µl of TMB substrate (0.05% 3,3',5,5' tetramethylbenzidine, 0.1 % hydrogen peroxide, complex polypeptides in a buffered solution; Cell Signaling, USA; #7160) are added to each well and incubated for 30 min. at 25°C. Finally 100 µl of STOP solution (0.05vol% α and β unsaturated carbonyl compound) are added to each well and the plate are shaked gently. The absorbance is measured at λ =450 nm (Wallac Victor2; Perkin Elmer, USA) within 30 min. after adding the STOP solution. The analysis of the data is performed using a statistical program (Excel; Microsoft, USA). Preferred compounds show an inhibitory activity towards Akt phosphorylation below 10µM.

IC50 (phosphorylated GSK3) [nM] | IC50 [1] [nM] | Compound | IC50 (OvCAR3 cells) [nM]
1000 to 10000 | < 1000 | Clc1cnc2nc(-c3ccc(CN4CCC(c5n[nH]c(-c6ccccn6)n5)CC4)cc3)c(-c3ccccc3)n2c1 [Example 21, 6-chloro-3-phenyl-2-(4-{[4-(5-pyridin-2-yl-1,2,4-triazol-3-yl)piperidin-1-yl]methyl}phenyl)imidazo[1,2-a]pyrimidine] | < 10000
1000 to 10000 | < 1000 | Fc1ccc2nc(-c3ccc(CN4CCC(c5n[nH]c(-c6ccccn6)n5)CC4)cc3)c(-c3ccccc3)n2c1 [Example 22, 6-fluoro-3-phenyl-2-(4-{[4-(5-pyridin-2-yl-1,2,4-triazol-3-yl)piperidin-1-yl]methyl}phenyl)imidazo[1,2-a]pyridine] | < 10000
1000 to 10000 | < 1000 | Ic1cnc2nc(-c3ccc(CN4CCC(c5n[nH]c(-c6ccccn6)n5)CC4)cc3)c(-c3ccccc3)n2c1 [Example 23, 6-iodo-3-phenyl-2-(4-{[4-(5-pyridin-2-yl-1,2,4-triazol-3-yl)piperidin-1-yl]methyl}phenyl)imidazo[1,2-a]pyrimidine] | < 10000
< 1000 | < 1000 | COc1ccn2c(-c3ccccc3)c(-c3ccc(CN4CCC(c5n[nH]c(-c6ccccn6)n5)CC4)cc3)nc2n1 [Example 24, 7-methoxy-3-phenyl-2-(4-{[4-(5-pyridin-2-yl-1,2,4-triazol-3-yl)piperidin-1-yl]methyl}phenyl)imidazo[1,2-a]pyrimidine] | < 10000
< 1000 | < 1000 | Brc1cccn2c(-c3ccccc3)c(-c3ccc(CN4CCC(c5n[nH]c(-c6ccccn6)n5)CC4)cc3)nc12 [Example 25, 8-bromo-3-phenyl-2-(4-{[4-(5-pyridin-2-yl-1,2,4-triazol-3-yl)piperidin-1-yl]methyl}phenyl)imidazo[1,2-a]pyridine] | < 10000
1000 to 10000 | < 1000 | COc1nccn2c(-c3ccccc3)c(-c3ccc(CN4CCC(c5n[nH]c(-c6ccccn6)n5)CC4)cc3)nc12 [Example 27, 8-methoxy-3-phenyl-2-(4-{[4-(5-pyridin-2-yl-1,2,4-triazol-3-yl)piperidin-1-yl]methyl}phenyl)imidazo[1,2-a]pyrazine] | < 10000
< 1000 | < 1000 | N#Cc1ccn2c(-c3ccccc3)c(-c3ccc(CN4CCC(c5n[nH]c(-c6ccccn6)n5)CC4)cc3)nc2c1 [Example 29, 3-phenyl-2-(4-{[4-(5-pyridin-2-yl-1,2,4-triazol-3-yl)piperidin-1-yl]methyl}phenyl)imidazo[1,2-a]pyridine-7-carbonitrile] | < 10000
< 1000 | 1000 to 10000 | c1ccc(-c2c(-c3ccc(CN4CCC(c5cc(-c6ccccn6)n[nH]5)CC4)cc3)nc3ncccn23)cc1 [Example 30, 3-phenyl-2-(4-{[4-(3-pyridin-2-yl-pyrazol-5-yl)piperidin-1-yl]methyl}phenyl)imidazo[1,2-a]pyrimidine] | < 10000
1000 to 10000 | < 1000 | COc1ccc2nc(-c3ccc(CN4CCC(c5n[nH]c(-c6ccccn6)n5)CC4)cc3)c(-c3ccccc3)n2n1 [Example 32, 6-methoxy-3-phenyl-2-(4-{[4-(5-pyridin-2-yl-1,2,4-triazol-3-yl)piperidin-1-yl]methyl}phenyl)imidazo[1,2-b]pyridazine] | < 10000
> 10000 | 1000 to 10000 | N=C(N)c1cccn2c(-c3ccccc3)c(-c3ccc(CN4CCC(c5n[nH]c(-c6ccccn6)n5)CC4)cc3)nc12 [Example 33, 3-phenyl-2-(4-{[4-(5-pyridin-2-yl-1,2,4-triazol-3-yl)piperidin-1-yl]methyl}phenyl)imidazo[1,2-a]pyridine-8-carboximidamide] | > 10000
< 1000 | < 1000 | c1ccc(-c2nc(C3CCN(Cc4ccc(-c5nc6ncccn6c5-c5ccsc5)cc4)CC3)n[nH]2)nc1 [Example 34, 2-(4-{[4-(5-pyridin-2-yl-1,2,4-triazol-3-yl)piperidin-1-yl]methyl}phenyl)-3-(3-thienyl)imidazo[1,2-a]pyrimidine] | < 10000
1000 to 10000 | < 1000 | c1ccc(-c2c(-c3ccc(CN4CCC(c5n[nH]c(-c6ccccn6)n5)CC4)cc3)nc3cnccn23)cc1 [Example 37, 3-phenyl-2-(4-{[4-(5-pyridin-2-yl-1,2,4-triazol-3-yl)piperidin-1-yl]methyl}phenyl)imidazo[1,2-a]pyrazine] | < 10000
< 1000 | < 1000 | NC(=O)c1ccn2c(-c3ccccc3)c(-c3ccc(CN4CCC(c5n[nH]c(-c6ccccn6)n5)CC4)cc3)nc2c1 [Example 38, 3-phenyl-2-(4-{[4-(5-pyridin-2-yl-1,2,4-triazol-3-yl)piperidin-1-yl]methyl}phenyl)imidazo[1,2-a]pyridine-7-carboxamide] | < 10000
1000 to 10000 | < 1000 | c1ccc(-c2nc(C3CCN(Cc4ccc(-c5nc6ncccn6c5-c5nccs5)cc4)CC3)n[nH]2)nc1 [Example 39, 2-(4-{[4-(5-pyridin-2-yl-1,2,4-triazol-3-yl)piperidin-1-yl]methyl}phenyl)-3-(1,3-thiazol-2-yl)imidazo[1,2-a]pyrimidine] | < 10000
